“Also recorded” adds a separate entry of the source. Numbered stars: 1 amine (or outer) side, 2 acyl side, 3 side chain; on linkers, the order of the positions; unused ones are H or OH. Bridge positions count the residues as written; N and C are the ends. Square brackets hold non-standard residues; d marks the D form. Ends that are not written are not given here. GlyBU(C4) = Gly building unit (N-alpha-functionalized Gly) carrying a C4 alkyl chain (n = m = 4), bridged through a urea group; CO = O=C([*:1])[*:2]
How the values were obtained:
pEGFR = experiment: PAR4 induced pEGFR in MDA-MB-231 cells (Western blot); assay type: cell-based, human; conditions: endogenous PAR4 and EGFR, AYPGKF 200 μM, FIG. 17
Method: Activation of PAR4 induces phosphorylation of EGFR. This is seen 15 min following AYPGKF the synthetic hexa peptide application for PAR4 activation. MDA-231 cells were serum starved over night following AYPGKF PAR4 activation (200 μM) for 5-60 min. Detection by Western blot analyses of pY-EGFR and EGFR was performed using either anti-phospho tyrosine or anti EGFR antibodies respectively. PAR4 activation induces EGFR tyrosine phosphorylation within 15 min.
We have performed immunohistochemical (IHC) staining analyses of EGFR in Her2/Neu and TN breast cancer patient tissues. Analyses have indicated the presence of EGFR in both HER2/Neu as also in TN breast cancer tissue biopsy specimen (FIGS. 16A and 16B, respectively). Pc(4-4) Inhibits PAR4 Induced pEGFR in MDA-MB-231 Cells MDA-MB-231 cells were serum starved overnight following AYPGKF PAR4 activation (200 μM) for 5-60 min in the presence and absence of Pc(4-4) (200 μM). Detection by Western blot analyses of pEGFR and EGFR was performed using either anti-phosphotyrosine or anti-EGFR antibodies (1:1000 dilution), respectively. […] AYPGKF activation of PAR4 leads to pTyr-EGFR in MDA-231 cells (see FIG. 17). […] In the presence of Pc(4-4) cyclic peptide (right panel) potently (200 μM) inhibition of the phosphorylation of EGFR is observed (FIG. 17). […]

Lovo cancer cell-line = experiment: Wound-scratch migration assay, Lovo cell monolayers; assay type: cell-based; conditions: AYPGKF activated, 24 hr, 150 μM and 300 μM, FIG. 8D-8K
Method: HEK293 cells were transiently transfected with flg-Par4 followed by AYPGKF PAR4 activation in the presence and absence of PAR4c (4-4) within the range of 50 nM-150 μM. IP of cell lysates following different periods of activation was carried out using anti flg abs. Detection of Akt was performed by anti Akt abs. β-actin serves as a control gene for loading. […] Matrigel invasion before and after AYPGKF PAR4 activation and in the presence and absence of PAR4 c(4-4) inhibitor in the activated PAR4 cells. A range between 50 nM-150 μM PAR4 c(4-4) inhibitor was applied. While ample Matrigel invasion is seen following PAR4 activation, this was attenuated in the presence of the inhibitor in all the concentrations used, similar to control prior to PAR4 activation. FIG. 8C—Histograms represent quantification of the cells/HPF invaded the Matrigel layer. Unpaired Student's t test was used. This experiment is a representative of three independent experiments performed in triplicates. FIG. 8D-8K show Wound-scratch migration assay. Lovo cancer cell-line was grown to confluence. Then, an equal wound scratch was introduced to Lovo cell monolayers. Monolayers were serum starved overnight and PAR4 was activated or not with AYPGKF. One hour prior to activation PAR4 c(4-4), either at 150 μM or 300 μM concentrations was added to the monolayers.
Migration was evaluated by “wound scratch assay” applied. […]

HCT116 cells = experiment: Xenograft tumor model, HCT116 cells inoculated subcutaneously in nude mice; assay type: in vivo; conditions: s.c., 100 μM, 0.25 mg/30 gm, 3 times/week, from day of inoculation or 4 days later, terminated after 20 days
Method: HCT116 cells (1×10^6) were injected subcutaneously to nude mice. Pc(4-4) (100 μM; 0.25 mg/30 gm) was subcutaneously injected, either at the same day of tumor cell inoculation or 4 days later. The inhibitor was applied repeatedly 3 times/week for 3 weeks. Mice were weighted every 3 days and tumor size was measured. Mice were sacrificed after 21 days. This is a representative of three times performed experiments. […] Tumor volume measurements of HCT116 cells inoculated into nude mice. Tumors were weighed and measured for size at the indicated time points and tumor volume was calculated. Error bars show s.d.; * P<0.05; *** P<0.001; while ns are considered as not significant.
Another cell lines used in the experiment was HCT-116, an aggressive colon cancer cell line overexpressing oncogenes including PAR4.
Male athymic nude mice aged 6-7 weeks were pre-implanted subcutaneously with the relevant cells (1×10^6 cells): either with HCT-116 or with RKO/hPar4 cells.
The inhibitor was injected at the site of the tumor at the day of inoculation. In an additional group, mice implanted with HCT-116 were administered with the inhibitor at day 4 after inoculation. […]
Mice were monitored for tumor size by external caliber measurements (length and width) on days 7, 14, 22 and for up to 32 days, if tumor burden allowed. Tumor volume (V) was calculated by V=L×W^2×0.5, where L is length and W is width. […]

Pc(4-4): backbone cyclic analog of Formula I, m=n=4, ring size 30 atoms (S[GlyBU(C4)]EFRDK[GlyBU(C4)]; bridge 2-8 via CO; not fully specified; printed as SZ1EFRDKX3)
inhibition of PAR4 induced phosphorylation of EGFR (pEGFR): potently inhibited
inhibition of migration/proliferation (wound scratch) (Lovo cancer cell-line): marked inhibition
inhibition of migration/proliferation (wound scratch) (Lovo cancer cell-line; listed as PAR4 c(4-4)): inhibits
tumor growth / tumor size (HCT116 cells): significantly smaller tumors; also recorded: potently inhibits
tumor growth / tumor size (HCT116 cells; listed as PAR4 (4-4)): much smaller tumors

Source: US20230331781A1, “PAR4 DERIVED PEPTIDES, ANALOGS AND USES THEREOF” (Yissum Research Development Company of the Hebrew …, priority 2019, published 2023)
